Source: patent publication US20180133283A1, “METHOD AND COMPOSITIONS FOR SYNCHRONIZING TIME OF INSEMINATION IN GILTS” (JBS UNITED ANIMAL HEALTH II LLC, priority 2012, published 2018)

Key:
Format in all cases: in vivo, swine
gilts [1] = experiment: Example 1: estrus observation (boar exposure, back pressure) after triptorelin gel; conditions: raw averages; PTK 1-07 (rep 3); 200 mcg T at 120 h
Protocol: (§1) All gilts were individually fed MATRIX® as a top-dress for 14 days at the recommended rate of 15 mg/gilt/day. Gilts were withdrawn from MATRIX® feeding (last top feed in the morning on Day 0) and allotted to treatments. Controls were treated with a 1.2% methylcellulose gel formulation without triptorelin at 96 hours following MATRIX® withdrawal (last top-dress). The remaining gilts received 200 mcg triptorelin, as the acetate, in a 1.2% methylcellulose gel formulation intravaginally at various times after MATRIX® withdrawal. The four treatments were: 1) vehicle gel (VG) treatment at 96 hours after MATRIX® withdrawal, 2) triptorelin gel (TG) treatment at 96 hours after MATRIX® withdrawal, 3) TG treatment at 120 hours after MATRIX® withdrawal and 4) TG treatment at 144 hours after MATRIX® withdrawal. All gilts were monitored for their estrous and ovulatory status as described below. Gilts included in replicate 1 were selected from terminal line commercial production gilts located in grow/finish barns. Sexual maturity, as indicated by one or more estrous periods, was not verified prior to the start of MATRIX® feeding. Gilts included in replicate 2 were selected from a maternal line gilt population. Sexual maturity was verified by at least one estrous period verified and recorded prior to starting MATRIX® feeding.
For post-treatment estrus detection, gilts were housed in individual pens. […]

serum LH = experiment: Example 5: blood collection and serum LH analysis (LH surge); conditions: for Gilts, which displayed a LH surge: number of gilts
Protocol: A catheter was inserted non-surgically into the jugular vein (Kraeling et al. 1982) of a subpopulation of gilts in each treatment group (vehicle gel, n=8; 100 mcg triptorelin, n=6; 200 mcg triptorelin, n=7 and 400 mcg triptorelin, n=6). Ten mL blood samples were collected every 15 minutes for one hour prior to treatment, immediately following treatment (0) and at 0.5, 1, 2, 4, 6, 12, 18, 24, 36 and 48 hours after treatment. Blood samples were maintained at 4° C. until centrifuged at 800×g for 15 minutes within 12 hours of collection. The resulting serum was stored frozen until assayed for LH using validated procedures for pig serum (Kesner et al., 1987 and Kraeling et al., 1982). Onset, duration, and magnitude of the LH surge were analyzed. The LH data were analyzed with the General Linear Models procedure of SAS. Differences between treatments were tested on least squares means estimates using the T test at P<0.05. Onset of the LH surge is when serum LH concentration is greater than or equal to two standard deviations of the mean of the pre-treatment serum LH concentrations. Duration of the LH surge is the period between onset and when serum LH concentration is again less than or equal to two standard deviations of the mean of the pre-treatment serum LH concentrations. Magnitude of the LH surge is the maximum serum LH concentration reached during the LH surge.

gilts [2] = experiment: Example 5: estrus observation; conditions: raw averages, PTK 2-07
Protocol: For post-treatment estrus detection, gilts were housed in individual pens. Boars were housed in separate rooms, and/or at least 12 m away and downwind. To elicit signs of estrus, a mature boar was walked slowly in the alley in front of the gilts' crates, exposing each test gilt to visual, auditory and olfactory signals from the boar for up to 5 minutes. In keeping with standard practice at commercial farms, while the boar was near the front of the gilt's crate, estrus was tested by an experienced person applying back pressure to the midsection of the gilt combined with side rubbing. Estrus was confirmed when a gilt stood rigidly to the back pressure, with no vocalization and with some indication of an ear reflex. Gilts were not exposed to boars during the first three days after withdrawal of MATRIX® (Day 0 to Day 2). Estrus detection was performed daily on all gilts from Day 3 to Day 7.

gilts [3] = experiment: Example 1: ovulation monitoring by transrectal ultrasonography after 200 mcg triptorelin gel intravaginally at 96, 120 or 144 h after MATRIX withdrawal; conditions: raw averages, PTK 1-07 (rep 3), 200 mcg T
Protocol: as §1
The ovulatory status of all gilts was monitored by transrectal ultrasonography. For replicate one, ovulation was monitored two times on Day 5, then three times a day from Day 6 to Day 8. For replicate two, ovulation was monitored three times a day from Day 5 to Day 8. An Aloka 500 ultrasound machine with a 7.5 MHz linear array transducer attached to a fixed-angle PVC stabilizing rod to facilitate insertion into the rectum was used for this purpose. The transducer and PVC rod were coated with a gynecological lubricant and gently inserted into the rectum until the ovaries were visualized, one at a time. The diameters of the three largest follicles were recorded (to the nearest 0.1 mm) at each scanning. A gilt was declared to have ovulated when the number of large follicles (≥6.5 mm) fell to less than 3.
(§2) A single 2 mL dose of triptorelin gel or vehicle gel was deposited within approximately 1-2 cm posterior to the cervix with a catheter similar to those used for artificial insemination. The dose was delivered using a standard multi-dose applicator attached to the catheter. A new disposable sheath, which surrounds the catheter, was used for each gilt.
Data were analyzed using the Mixed Models procedures of SAS. Models included main effects of time of treatment following the last feeding of MATRIX®, replicate, and treatment by replicate interaction. Differences between treatments were tested on least squares means estimates using the T test at P<0.05. Data for analysis were tested for assumptions of data normality.

gilts [4] = experiment: Example 5: ovulation monitoring by transrectal ultrasonography after 100, 200 or 400 mcg triptorelin gel at 120 h after MATRIX withdrawal; conditions: for Percentage ovulated by 48 hours: catheterized subpopulation; for % of Sows Ovulating: raw averages, PTK 2-07
Protocol: All gilts were individually fed MATRIX® as a top-dress for 14 or 15 days at the recommended rate of 15 mg/gilt/day. Gilts were withdrawn from MATRIX® feeding (last top-dress in the morning on Day 0) and allocated to each of the following treatments. Controls were vehicle gel treated (vehicle gel without triptorelin) at 120 (+/−2) hours following MATRIX® withdrawal (last top dress). The other gilts were given 100, 200 or 400 mcg triptorelin as the acetate in a methylcellulose gel formulation 120 (+/−2) hours following MATRIX® withdrawal. The four treatments were:
1. Vehicle gel (VG): vehicle gel without triptorelin at 120 (+/−2) hours after MATRIX® withdrawal.
2. TG 100: 100 mcg (2 mL 50 mcg/mL) triptorelin gel at 120 (+/−2) hours after MATRIX® withdrawal.
3. TG 200: 200 mcg (2 mL 100 mcg/mL) triptorelin gel at 120 (+/−2) hours after MATRIX® withdrawal.
4. TG 400: 400 mcg (2 mL 200 mcg/mL) triptorelin gel at 120 (+/−2) hours after MATRIX® withdrawal.
Ovulation was monitored twice on Day 5 (8 hours and 16 hours post-treatment) and every 8 hours on Day 6 and Day 7 or until ovulation was confirmed or 176 hours following last MATRIX® feeding. The ovulatory status of all gilts was monitored by transrectal ultrasonography. An Aloka 500 ultrasound machine is used for this purpose, with a 7.5 MHz linear array transducer attached to a fixed-angle PVC stabilizing rod to facilitate insertion into the rectum. The transducer and PVC rod are coated with a gynecological lubricant and gently inserted into the rectum until the ovaries can be visualized, one at a time. The diameters of the three largest follicles were recorded (to the nearest 0.1 mm) at each scanning. A gilt was declared to have ovulated when the number of large follicles 6.5 mm) fell to less than 3.
as §2

[5] = relative to time of triptorelin gel treatment, 200 mcg T

## CC(C)C[C@H](NC(=O)[C@@H](Cc1c[nH]c2ccccc12)NC(=O)[C@H](Cc1ccc(O)cc1)NC(=O)[C@H](CO)NC(=O)[C@H](Cc1c[nH]c2ccccc12)NC(=O)[C@H](Cc1c[nH]cn1)NC(=O)[C@@H]1CCC(=O)N1)C(=O)N[C@@H](CCCNC(=N)N)C(=O)N1CCC[C@H]1C(=O)NCC(N)=O [T, pGlu-His-Trp-Ser-Tyr-D-Trp-Leu-Arg-Pro-Gly-NH2]
Gilts [1]
  Estrous Expression (%): 100.0%
Serum LH; 200 mcg T
  Duration of LH surge: 18
Serum LH; LS mean ± SE, relative to time of triptorelin gel treatment, 100 mcg T
  Onset of LH surge: 4 ± 3
Serum LH; LS mean ± SE, relative to time of triptorelin gel treatment, 400 mcg T
  Onset of LH surge: 4 ± 4
Serum LH; 100 mcg T (n = 6)
  Gilts, which displayed a LH surge: 4
Serum LH; 200 mcg T (n = 7)
  Gilts, which displayed a LH surge: 1
Serum LH; 400 mcg T (n = 6)
  Gilts, which displayed a LH surge: 5
Serum LH; [5]
  Onset of LH surge: 0.5
  Time of maximum LH conc.: 4 h
Gilts [2]; 100 mcg T at 120 h
  Estrous Expression (%): 75.0%
Gilts [2]; 200 mcg T at 120 h
  Estrous Expression (%): 81.0%
Gilts [3]; 128 h post-MATRIX, 8 h post-T
  % of Sows Ovulating: 0.0%
Gilts [3]; 136 h post-MATRIX, 16 h post-T
  % of Sows Ovulating: 10.0%
Gilts [3]; 144 h post-MATRIX, 24 h post-T
  % of Sows Ovulating: 30.0%
Gilts [3]; 152 h post-MATRIX, 32 h post-T
  % of Sows Ovulating: 70.0%
Gilts [3]; 160 h post-MATRIX, 40 h post-T
  % of Sows Ovulating: 80.0%
Gilts [3]; 168 h post-MATRIX, 48 h post-T
  % of Sows Ovulating: 90.0%
Gilts [3]; 176 h post-MATRIX, 56 h post-T
  % of Sows Ovulating: 100.0%
Gilts [4]; 100 mcg T (n = 6)
  Percentage ovulated by 48 hours: 100%
Gilts [4]; 200 mcg T (n = 7)
  Percentage ovulated by 48 hours: 100%
Gilts [4]; 400 mcg T (n = 6)
  Percentage ovulated by 48 hours: 100%
Gilts [4]; 100 mcg T, 128 h post-MATRIX, 8 h post-T
  % of Sows Ovulating: 0.0%
Gilts [4]; 100 mcg T, 136 h post-MATRIX, 16 h post-T
  % of Sows Ovulating: 5.0%
Gilts [4]; 100 mcg T, 144 h post-MATRIX, 24 h post-T
  % of Sows Ovulating: 20.0%
Gilts [4]; 100 mcg T, 152 h post-MATRIX, 32 h post-T
  % of Sows Ovulating: 30.0%
Gilts [4]; 100 mcg T, 160 h post-MATRIX, 40 h post-T
  % of Sows Ovulating: 60.0%
Gilts [4]; 100 mcg T, 168 h post-MATRIX, 48 h post-T
  % of Sows Ovulating: 95.0%
Gilts [4]; 100 mcg T, 176 h post-MATRIX, 56 h post-T
  % of Sows Ovulating: 100.0%
Gilts [4]; 200 mcg T, 128 h post-MATRIX, 8 h post-T
  % of Sows Ovulating: 0.0%
Gilts [4]; 200 mcg T, 136 h post-MATRIX, 16 h post-T
  % of Sows Ovulating: 0.0%
Gilts [4]; 400 mcg T, 128 h post-MATRIX, 8 h post-T
  % of Sows Ovulating: 4.5%
Gilts [4]; 400 mcg T, 136 h post-MATRIX, 16 h post-T
  % of Sows Ovulating: 9.1%
Gilts [4]; 400 mcg T, 168 h post-MATRIX, 48 h post-T
  % of Sows Ovulating: 100.0%
Gilts [4]; 400 mcg T, 176 h post-MATRIX, 56 h post-T
  % of Sows Ovulating: 100.0%
